Assay results from patent US11518764B2, “Substituted heteroaryls as inhibitors of the BCL6 BTB domain protein-protein interaction” (Ontario Institute for Cancer Research (OICR), priority 2018, dated 2022).

What was measured:
BCL6 BTB domain = BCL6 BTB domain (Homo sapiens (Human), UniProt P41182); experiment: Surface plasmon resonance (SPR) assay; format: binding; conditions: BCL6 BTB domain captured on SA chip, single cycle kinetics
[1] = test system: BCL6 reporter construct (3xBCL6-TK-Luc) in SuDHL4 cells; experiment: Cell-based luciferase assay; conditions: Homo sapiens, SU-DHL-4, 48 h, read-out: Luciferase-Assay EC50, uM), SuDHL4-3xBCL6-TK-Luc cells, two days, high dose 10 uM
How it was run: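 SuDHL4 cells stably carrying a 3×BCL6-site TK-promoter firefly luciferase reporter, seeded at 15,000 cells/well, were dosed over a 10-point range (top 10 uM) and grown two days at 37 °C, 5% CO2. Luminescence then read after adding neolite reagent at room temperature.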

Karpas422 cells = experiment: Tumor cell growth inhibition assay; format: cell-based; conditions: Homo sapiens, KARPAS-422, 144 h, read-out: Tumor Growth Inhibition in Karpas-422 (IC50, uM), Karpas422 cells, six days, ATPlite
How it was run: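 Growth inhibition was measured by ATPlite luminescence after six days of culture at 37° C. in 5% CO2. Karpas422 cells were seeded at 2,000 per well in Alpha-MEM plus 10% FBS. Compounds were given as a 10-point concentration series with a highest dose of 5 uM.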

SMILES	Kd (BCL6 BTB domain) [nM]	EC50 [1] [µM]	IC50 (Karpas422 cells) [µM]
COCCN1CCN(c2cc(NC(=O)Cn3cc(-c4cc(Cl)c(O)c(C(N)=O)c4)c4c(=O)n(C)cnc43)c(Cl)c(F)n2)[C@@H](C)C1 [Compound I-447]	9.02	0.113	0.0709
COCCN1CCN(c2cc(NC(=O)Cn3cc(-c4cc(F)c(O)c(C(N)=O)c4)c4c(=O)n(C)cnc43)c(Cl)c(F)n2)[C@@H](C)C1 [Compound I-448]	3.42	0.0483	0.0446
CN1CC2CC(C1)N2c1cc(NC(=O)Cn2cc(-c3cc(Cl)c(O)c(C(N)=O)c3)c3c(=O)n(C)cnc32)c(Cl)cn1 [Compound I-449]	60.3	2.48	1.97
C[C@H]1CN(CCO)CCN1c1cc(NC(=O)Cn2cc(-c3cc(C(N)=O)c(O)c(F)c3F)c3c(=O)n(C)cnc32)c(Cl)cn1 [Compound I-452, (S)-5-(7-(2-((5-chloro-2-(4-(2-hydroxyethyl)-2-methylpiperazin-1-yl)pyridin-4-yl)amino)-2-oxoethyl)-3-methyl-4-oxo-4,7-dihydro-3H-pyrrolo[2,3-d]pyrimidin-5-yl)-3,4-difluoro-2-hydroxybenzamide]	13.6	2.6	1.52
C[C@H]1CN(CCC(F)(F)F)CCN1c1cc(NC(=O)Cn2cc(-c3cc(C(N)=O)c(O)c(F)c3F)c3c(=O)n(C)cnc32)c(Cl)cn1 [Compound I-453]	54.3	0.41	0.16
C[C@@H](C1CC1)N1CCN(c2cc(NC(=O)Cn3cc(-c4cc(C(N)=O)c(O)c(F)c4F)c4c(=O)n(C)cnc43)c(Cl)c(F)n2)[C@@H](C)C1 [Compound I-454]	13.5	0.306	0.244
C[C@H](C1CC1)N1CCN(c2cc(NC(=O)Cn3cc(-c4cc(C(N)=O)c(O)c(F)c4F)c4c(=O)n(C)cnc43)c(Cl)c(F)n2)[C@@H](C)C1 [Compound I-455]	11.2	0.307	0.204
CC1N=CC(C#CCn2cnc3c(c(-c4cc(C(N)=O)c(O)c(F)c4F)cn3CC(=O)Nc3cc(N4CCN(C)C[C@@H]4C)nc(F)c3Cl)c2=O)=N1 (stereo partly drawn) [Compound I-456]	1.87	0.0858	0.0554
C[C@H]1COCCN1c1cc(NC(=O)Cn2cc(-c3cc(F)c(O)c(C(N)=O)c3)c3c(=O)n(CC#Cc4cnn(C)c4)cnc32)c(Cl)cn1 [Compound I-457]	13.1	0.328	0.183
CC(C)CN1CCN(c2cc(NC(=O)Cn3cc(-c4cc(C(N)=O)c(O)c(F)c4F)c4c(=O)n(C)cnc43)c(Cl)c(F)n2)[C@@H](C)C1 [Compound I-458]	55.8	0.963	3.68
C[C@H]1CN(CC(O)CCO)CCN1c1cc(NC(=O)Cn2cc(-c3cc(C(N)=O)c(O)c(F)c3F)c3c(=O)n(C)cnc32)c(Cl)c(F)n1 (stereo partly drawn) [Compound I-459, 5-(7-(2-((3-chloro-6-((2S)-4-(2,4-dihydroxybutyl)-2-methylpiperazin-1-yl)-2-fluoropyridin-4-yl)amino)-2-oxoethyl)-3-methyl-4-oxo-4,7-dihydro-3H-pyrrolo[2,3-d]pyrimidin-5-yl)-3,4-difluoro-2-hydroxybenzamide]	6.55	0.945	1.06
C[C@H]1CN(CC2CCO2)CCN1c1cc(NC(=O)Cn2cc(-c3cc(C(N)=O)c(O)c(F)c3F)c3c(=O)n(C)cnc32)c(Cl)c(F)n1 (stereo partly drawn) [Compound I-460, 5-(7-(2-((3-chloro-2-fluoro-6-((2S)-2-methyl-4-(oxetan-2-ylmethyl)piperazin-1-yl)pyridin-4-yl)amino)-2-oxoethyl)-3-methyl-4-oxo-4,7-dihydro-3H-pyrrolo[2,3-d]pyrimidin-5-yl)-3,4-difluoro-2-hydroxybenzamide]	9.87	0.102	0.223
CO[C@@H](C)CN1CCN(c2cc(NC(=O)Cn3cc(-c4cc(C(N)=O)c(O)c(F)c4F)c4c(=O)n(C)cnc43)c(Cl)c(F)n2)[C@@H](C)C1 [Compound I-462]	50.3	0.184	0.289
C[C@H]1CN(CC(CO)CO)CCN1c1cc(NC(=O)Cn2cc(-c3cc(C(N)=O)c(O)c(F)c3F)c3c(=O)n(C)cnc32)c(Cl)c(F)n1 [Compound I-463, (S)-5-(7-(2-((3-chloro-2-fluoro-6-(4-(3-hydroxy-2-(hydroxymethyl)propyl)-2-methylpiperazin-1-yl)pyridin-4-yl)amino)-2-oxoethyl)-3-methyl-4-oxo-4,7-dihydro-3H-pyrrolo[2,3-d]pyrimidin-5-yl)-3,4-difluoro-2-hydroxybenzamide]	8.56	3.53	1.28
C[C@H]1CN(CCC(F)(F)F)CCN1c1cc(NC(=O)Cn2cc(-c3cc(C(N)=O)c(O)c(F)c3F)c3c(=O)n(C)cnc32)c(Cl)c(F)n1 [Compound I-464]	83.8	0.213	0.421
Cn1cnc2c(c(-c3cc(C(N)=O)c(O)c(F)c3F)cn2CC(=O)Nc2cc(N3C4CCC3CN(CC(F)(F)F)C4)ncc2Cl)c1=O [Compound I-465]	84.9	4.47	1.17
Cn1cnc2c(c(-c3cc(Cl)c(O)c(C(N)=O)c3)cn2CC(=O)Nc2cc(N3C4CCC3CN(CC(F)(F)F)C4)ncc2Cl)c1=O [Compound I-466]	519	3.81	0.773

SMILES	Kd (BCL6 BTB domain) [nM]	EC50 [1] [µM]	IC50 (Karpas422 cells) [µM]
Cn1cnc2c(c(-c3cc(F)c(O)c(C(N)=O)c3)cn2CC(=O)Nc2cc(N3C4CCC3CN(CC(F)(F)F)C4)ncc2Cl)c1=O [Compound I-467]	175	1.23	0.496
Cn1cnc2c(c(-c3cc(C(N)=O)c(O)c(F)c3F)cn2CC(=O)Nc2cc(N3Cc4ccncc4C3)ncc2Cl)c1=O [Compound I-468]	23.5	0.461	0.417
C[C@H]1CN(CC(F)F)CCN1c1cc(NC(=O)Cn2cc(-c3cc(C(N)=O)c(O)c(F)c3F)c3c(=O)n(C)cnc32)c(Cl)c(F)n1 [Compound I-469]	35.5	0.141	0.153
C[C@H]1COCCN1c1cc(NC(=O)Cn2cc(-c3cc(F)c(O)c(C(N)=O)c3F)c3c(=O)n(C)cnc32)c(Cl)c(F)n1 [Compound I-472]	55.7	3.8	10
Cn1cnc2c(c(-c3cc(Cl)c(O)c(C(N)=O)c3)cn2CC(=O)Nc2cc(N3C[C@H]4CC[C@@H](C3)N4CC(F)(F)F)ncc2Cl)c1=O [Compound I-474]	35.8	0.216	0.237
Cn1cnc2c(c(-c3cc(C(N)=O)c(O)c(F)c3F)cn2CC(=O)Nc2cc(N3C[C@H]4CC[C@@H](C3)N4CC(F)(F)F)ncc2Cl)c1=O [Compound I-475]	50.5	0.484	0.576
Cn1cnc2c(c(-c3cc(F)c(O)c(C(N)=O)c3)cn2CC(=O)Nc2cc(N3C[C@H]4CC[C@@H](C3)N4CC(F)(F)F)ncc2Cl)c1=O [Compound I-476]	13.7	0.159	0.118
CN1CC2CCC(C1)N2c1cc(NC(=O)Cn2cc(-c3cc(F)c(O)c(C(N)=O)c3)c3c(=O)n(C)cnc32)c(Cl)cn1 [Compound I-477]	10.1	0.328	0.272
CN1CCN(c2cc(NC(=O)Cn3cc(-c4cc(F)c(O)c(C(N)=O)c4)c4c(=O)n(CC#Cc5cnn(C)c5)cnc43)c(Cl)cn2)CC1 [Compound I-478]	4.58	0.366	0.182
CN1CCC2(C1)CN(c1cc(NC(=O)Cn3cc(-c4cc(Cl)c(O)c(C(N)=O)c4)c4c(=O)n(C)cnc43)c(Cl)cn1)C2 [Compound I-479]	16.2	1.43	0.778
C[C@H]1CN(C)CCN1c1cc(NC(=O)Cn2cc(-c3cc(F)c(O)c(C(N)=O)c3)c3c(=O)n(CC#Cc4cnn(C)c4)cnc32)c(Cl)cn1 [Compound I-480]	137	2.21	0.704
Cn1cnc2c(c(-c3cc(C(N)=O)c(O)c(F)c3F)cn2CC(=O)Nc2cc(NCCCO)nc(F)c2Cl)c1=O [Compound I-481, 5-(7-(2-((3-chloro-2-fluoro-6-((3-hydroxypropyl)amino)pyridin-4-yl)amino)-2-oxoethyl)-3-methyl-4-oxo-4,7-dihydro-3H-pyrrolo[2,3-d]pyrimidin-5-yl)-3,4-difluoro-2-hydroxybenzamide]	19.2	19.4	10
CN1CC2(CCN(c3cc(NC(=O)Cn4cc(-c5cc(Cl)c(O)c(C(N)=O)c5)c5c(=O)n(C)cnc54)c(Cl)cn3)C2)C1 [Compound I-482]	34.3	4.69	2.32
CN1CC2(CCN(c3cc(NC(=O)Cn4cc(-c5cc(C(N)=O)c(O)c(F)c5F)c5c(=O)n(C)cnc54)c(Cl)cn3)C2)C1 [Compound I-483]	128	10	10
CN1CC2(CCN(c3cc(NC(=O)Cn4cc(-c5cc(F)c(O)c(C(N)=O)c5)c5c(=O)n(C)cnc54)c(Cl)cn3)C2)C1 [Compound I-484]	40.3	21.6	10
CN1CCC2(C1)CN(c1cc(NC(=O)Cn3cc(-c4cc(F)c(O)c(C(N)=O)c4)c4c(=O)n(C)cnc43)c(Cl)cn1)C2 [Compound I-486]	30	6.95	10
C[C@H]1CN(C)C[C@H](C)N1c1cc(NC(=O)Cn2cc(-c3cc(C(N)=O)c(O)c(F)c3F)c3c(=O)n(C)cnc32)c(Cl)c(F)n1 [Compound I-487]	122	1.29	1.8
